Source: patent US6126909A, “Process and apparatus for the production of BI-212 and a use thereof” (Arch Development Corporation, priority 1999, dated 2000)

Assays:
[1] = test system: NIH:OVCAR-3 cells (spheroids); assay: In vitro irradiation survival, spheroids; assay type: cell-based, human; settings: OVCAR-3 spheroids
Experimental: (§1) In vitro studies were carried out using three well known cell lines, the cells from which were exposed to radiation from: (1) an X-ray source; (2) P-32 chromic phosphate; and (3) Bi-212 chloride. The three cell lines that were used are V-79, which is a Chinese hamster lung fibroblast, Ehrlich-Lettre Ascites carcinoma (ATCC CCL 77), which is an ascites producing -tumor, and NIH:OVCAR-3 (ATCC HTB 161), which is a human ovarian adenocarcinoma. These well known cell lines are predictive of what happens in vivo. The cells were grown as monolayers and into spheroid formations and subsequently irradiated, as described herein.
(§2) The V-79 cells were maintained under exponential growth conditions in minimal essential medium (MEM) supplemented with 10 percent fetal bovine serum. The Ehrlich-Lettre Ascites carcinoma cells were maintained in 90 percent NCTC 109 supplemented with 10 percent fetal bovine serum. The NIH:OVCAR-3 cells were maintained in RPMI 1640 and 10 percent fetal bovine serum.
To initiate the formation of the spheroids, cells at a concentration of about 500,000 cells per flask were seeded onto petri dishes base-cooked with 1 percent agar MEM without serum. After spheroids having a size of about 20 micrometers (μm) formed, the spheroids were transferred to spinner bottles and maintained for two to three weeks at a temperature of 37° C. in a CO2 incubator until they grew to 10 to 1000 μm. Prior to irradiation, the spheroids were sized and separated using a spheroid separation column.
(§3) Cells from each of the cell lines were irradiated by subjecting the cells to X-ray radiation, P-32, and Bi-212. The X-ray source that was used is a General Electric 250 kvp Maxitron, 26 […] (mA) (HVL 1.5 mm Cu) operated at a dose rate of 1.11 Greys per minute (Gy/min). The cells, in both monolayer and spheroid form were exposed at room temperature and then immediately plated for survival.
(§4) Cells in both monolayer and spheroid were exposed to P-32 chromic phosphate. The radiation dose to each sample was calculated as: […]
(§5) After exposure, the cells were washed in phosphate-buffered saline (PBS) and immediately plated for survival.
The cell lines were also irradiated using Bi-212. […] The filter was purged with 1 ml of distilled deionized water, and the radioactivity was assayed using a calibrated 3×3-in. […]
(§6) Cells were exposed over a period of four hours. The dose (D) per microCurie was calculated and corrected for decay as follows: [formula] where V=volume in milliliters, and […]
(§7) Following plating, survival measurements were taken for each of the irradiated cell samples. […] The plates were then stained with crystal violet and colonies greater than 50 cells were scored. The surviving fraction was then determined.
Intrinsic radiosensitivity (Do) was calculated from the survival curves. […]

NIH:OVCAR-3 cells = assay: In vitro irradiation survival (clonogenic), monolayer; assay type: cell-based, human; settings: OVCAR-3 monolayer
Experimental: as §1, §2, §3, §4, §5
The cell lines were also irradiated using Bi-212. Bismuth-212 was eluted from a generator as described in the aforementioned patent to Atcher et al., which was a cation-exchange column supporting Ra-224, with 1 ml of 0.15 N HI, and the generator was purged with 2 ml of distilled deionized water. […] The filter was purged with 1 ml of distilled deionized water, and the radioactivity was assayed using a calibrated 3×3-in. […]
as §6, §7
Intrinsic radiosensitivity (Do) was calculated from the survival curves. […] Relative biological effectiveness (RBE) was determined as the ratio of the absorbed dose of X-ray to that of alpha radiation to produce the same degree of biological effect.

[2] = Estimated radiation dose in humans; parameters: species or system human; Gamma dose/100 mCi / Alpha dose/100 mCi / Total dose: unit: cGy; settings: for Total dose / Calculated alpha dose / Calculated gamma dose: 100 mCi
Description: Based upon the in vivo studies, a contemplated dose of 100 mCi to a human produces an alpha and gamma dose to any organ of less than 150 cGy. The calculated alpha dose to the gastrointestinal tract, liver and kidneys is 87.7, 24.6 and 92.5 cGy, respectively, and the calculated gamma dose is 7.39, 4.14 and 5.00 cGy, respectively. Table 9, below, provides the estimated total dose in humans based upon an initial dose of 100 mCi of Bi-212.

[212Bi] [Bi-212, bismuth-212]
D0 (intrinsic radiosensitivity) ([1]; dose to 37 percent survival): 0.55 Gy
Relative biological effectiveness (RBE) ([1]; relative to X-ray): 2.81
D0 (intrinsic radiosensitivity) (NIH:OVCAR-3 cells; dose increment reducing survival to 37 percent): 0.75 Gy
Relative biological effectiveness (RBE) (NIH:OVCAR-3 cells; relative to X-ray): 3.19
Alpha dose/100 mCi ([2]; GI tract): 87.7
Gamma dose/100 mCi ([2]; GI tract): 7.39
Total dose ([2]; GI tract): 95.1
Alpha dose/100 mCi ([2]; brain): 2.45
Gamma dose/100 mCi ([2]; brain): 0.038
Total dose ([2]; brain): 2.49
Alpha dose/100 mCi ([2]; breasts): 2.45
Gamma dose/100 mCi ([2]; breasts): 0.643
Total dose ([2]; breasts): 3.09
Alpha and gamma dose to any organ ([2]; contemplated dose of 100 mCi to a human): less than 150 cGy
Calculated alpha dose ([2]; gastrointestinal tract): 87.7 cGy
Calculated gamma dose ([2]; gastrointestinal tract): 7.39 cGy
Alpha dose/100 mCi ([2]; kidneys): 92.5
Gamma dose/100 mCi ([2]; kidneys): 5.00
Calculated alpha dose ([2]; kidneys): 92.5 cGy
Calculated gamma dose ([2]; kidneys): 5.00 cGy
Total dose ([2]; kidneys): 97.5
Alpha dose/100 mCi ([2]; liver): 24.6
Gamma dose/100 mCi ([2]; liver): 4.14
Calculated alpha dose ([2]; liver): 24.6 cGy
Calculated gamma dose ([2]; liver): 4.14 cGy
Total dose ([2]; liver): 28.7
Alpha dose/100 mCi ([2]; lungs): 2.45
Gamma dose/100 mCi ([2]; lungs): 1.33
Total dose ([2]; lungs): 3.78
Alpha dose/100 mCi ([2]; ovaries): 102.4
Gamma dose/100 mCi ([2]; ovaries): 5.42
Total dose ([2]; ovaries): 107.8
Alpha dose/100 mCi ([2]; pancreas): 2.45
Gamma dose/100 mCi ([2]; pancreas): 17.2
Total dose ([2]; pancreas): 19.7
Alpha dose/100 mCi ([2]; red marrow): 2.45
Gamma dose/100 mCi ([2]; red marrow): 2.30
Total dose ([2]; red marrow): 4.75
Alpha dose/100 mCi ([2]; remainder): 2.45
Gamma dose/100 mCi ([2]; remainder): 1.78
Total dose ([2]; remainder): 4.23
Alpha dose/100 mCi ([2]; thyroid): 2.45
Gamma dose/100 mCi ([2]; thyroid): 0.154
Total dose ([2]; thyroid): 2.60
Alpha dose/100 mCi ([2]; total body): 2.45
Gamma dose/100 mCi ([2]; total body): 1.83
Total dose ([2]; total body): 4.28
Alpha dose/100 mCi ([2]; uterus): 102.4
Gamma dose/100 mCi ([2]; uterus): 21.2
Total dose ([2]; uterus): 123.6
